{
  "source": "patent US7348315B2",
  "about": "“Methods of treating heart failure with modified ATP, ADP and AMP compounds” (priority 1995, dated 2008)",
  "key": {"[1]": {"test_system": "cardiac ventricular myocytes", "assay": "Contractile amplitude of cultured cardiac ventricular myocytes (optico-video motion detection)", "format": "cell-based, chick", "details": "for maximal % increase in contractile amplitude: ventricular myocytes (chick embryo 14 days in ovo / adult rat), mean ± SE; for ability to stimulate an increase in contractile amplitude: FIGS. 1a-1d; for desensitization of the positive inotropic response to ATP, ADPβS and UTP after pre-exposure: pre-exposure 100 μM, 60 minutes (2-methylthio ATP) or three hours (UTP)", "source_text": "[…] Sen, L., Liang, B. T., Colucci, W. S., Smith, T. W., Circ. Res. 67:1182-1192 (1990), modified to include the use of a high-speed peristaltic pump (Masterflex from Cole-Palmer/Spectrum), choice of lots of collagenase, hyaluronidase and protease that give the highest proportion of rod-shaped myocytes, inclusion of bovine serum albumin containing various enzymes, and pre-plating with laminin-coated plates or glass coverslips (for contractility measurement) to eliminate damaged, rounded up myocytes. Specifically, hearts from Sprague-Dawley rats were perfused in a retrograde manner for 5 minutes in Krebs-Henseleit (KH) bicarbonate buffer containing 118 mM NaCl, 4.6 mM KCl, 1.2 mM MgSO4, 1.25 mM CaCl2, 1.2 mM KH2PO4, 25 mM NaHCO3, and 11 mM glucose, gassed with 95% O2/5% CO2/at pH 7.4 (37° C., and an osmolality of 287 mosm/liter). The perfusion buffer was changed to nominally Ca^2+-free KH buffer for 5 min to arrest spontaneous beating. The heart was then perfused with the Ca^2+-free KH buffer containing 0.05% collagenase (Worthington) and 0.03% hyaluronidase (Sigma Chem. Co., St. Louis, Mo.) for 20 min. After removing the atria and the great vessels, the ventricular tissue was finely minced in the same collagenase/hyaluronidase buffer described above except that trypsin (0.02 mg/ml, Sigma) and deoxyribonuclease (0.02 mg/ml, Sigma) was also added. The minced tissue was further incubated in this buffer at 37° C. with shaking to facilitate dissociation of individual ventricular myocytes. The dissociated cells containing some damaged cells were filtered and layered twice over a 6% bovine serum albumin gradient. The rod-shaped healthy heart cells sedimented more easily than the round damaged cells. After the second sedimentation through the 6% BSA gradient, the final pellet contains more than 90% rod-shaped heart cells.\nVentricular myocytes were cultured from chick embryos 14 days in ovo according to known procedures. Briefly, isolated ventricular myocytes from chick embryos 14 in ovo were prepared in calcium- and magnesium-free Hanks' balanced salt sodium (HBSS) containing 0.025% trypsin (GIBCO, Grand Island, N.Y.). After neutralization of trypsin medium containing horse serum and HBSS, cells were centrifuged and resuspended in culture medium containing 6% fetal bovine serum, 40% Medium 199 (GIBCO), 0.1% penicillin/streptomycin, and a salt solution. The final concentrations in the culture medium (in mmol/L) were Na 142, K 3.3, Mg 0.7, Ca 1.4, Cl 130, HCO3 16.4, and glucose 5.5. Cells were plated at a density of 400,000 cell per ml and cultivated in a humidified 5% CO2-95% […]\nThe cell isolation procedure was generally that of Kelly, R. A., Eid, H., Kramer, B. K., O'Neill, M., Liang, B. T., Reers, M., Smith, T. W., J. Clin. Invest. 86:1164-1171 (1990), […] Cells became confluent on day 3 in culture and contractility measurement was carried out on that day.\nMeasurement of contractile amplitude in cultured ventricular cells was carried out generally according to the methods of Xu, D., Kong, H., Liang, B. T., Circ. Res. 70:56-65 (1992), and Barry, W. H., and Smith, T. W., J. Physiol. (Lond) 325:243-260 (1982). […]"}, "isolated mouse heart": {"test_system": "isolated mouse heart", "assay": "Work-performing isolated mouse heart", "details": "100 nM, vs basal; for increase in +dP/dt (cardiac muscle contractility) / increase in cardiac output (C.O.) / increase in −dP/dt (diastolic relaxation): P less than 0.05, paired t test", "description": "perfusion in the isolated heart was carried out using the work-performing model described as follows: For the working heart model, a column of KHS buffer produced a constant hydrostatic pressure of 65 mmHg (for rat) or 55 mmHg (for mice). The opening of the pulmonary vein was connected via a PE-90 (for rat) or PE-50 (for mice) catheter to a reservoir of KHS buffer that maintained a “venous return” flow into the left atrium of about 12 mL/min (rat) or 5 mL/min (mice) under the resting condition. The venous return was maintained by a constant level of hydrostatic pressure (7-8 mm Hg) yielding a steady rate of venous return. The entering KHS buffer was then switched from retrograde to antegrade perfusion and produced a work-performing heart preparation. The perfusate exited the left ventricle through the aorta cannula, which was connected to the aortic column of KHS buffer with a hydrostatic pressure of 55 mmHg (for mice) or 65 mmHg (for rat). Aortic flow was the amount of perfusate exiting the aortic cannula measured in millimeters per minute. Coronary flow, in millimeters per minute, was collected via opening of the pulmonary artery. The sum of aortic flow and coronary flow was the cardiac output. A 23 gauge catheter was inserted into the left ventricle and its distal end is connected to a pressure transducer to record left ventricular pressures and ±dP/dt. The left ventricular developed pressure (LVDP) was the difference between LV systolic and diastolic pressure. A side port of the reservoir allowed direct infusion of beta-adrenergic agonist isoproterenol or P2X receptor agonist 2-[…] into the KHS buffer that entered the left ventricle via the left atrium, which then entered the coronary circulation following ejection of drug-containing perfusate into the aorta. The pressure recordings were channeled from amplifiers which had been precalibrated by a transducer simulator/calibrator (Ken Scientific Corp., Litchfield, Conn.). The signals were then digitized via a PCM-DAS 16S/330 interface board (Computer Boards, Inc. Mansfield, Mass.) which provided a high level of performance with analog input channels and digital channels. Data were analyzed by computer software (WorkBench for Windows+, Kent Scientific Corp.) designed for an IBM-compatible computer (Dell). […] Data acquisition, signal display (LV pressures, ±dP/dt, heart rate), and data analysis programs were run concurrently from the hard drive of the computer. Data points under each basal condition and during infusion of each drug concentration were summarized as means±SE, and the statistical differences were analyzed by one-way ANOVA with post-test comparison and […] and ISO (isoproterenol) were present at 100 nM. Basal represented the baseline values obtained before infusion with the agonists. Date were the means and standard errors of those obtained in 5 rats."}, "working rat heart": {"test_system": "working rat heart", "assay": "Intact working rat heart", "details": "FIG. 11", "description": "For the working heart model, a column of KHS buffer produced a constant hydrostatic pressure of 65 mmHg (for rat) or 55 mmHg (for mice). The opening of the pulmonary vein was connected via a PE-90 (for rat) or PE-50 (for mice) catheter to a reservoir of KHS buffer that maintained a “venous return” flow into the left atrium of about 12 mL/min (rat) or 5 mL/min (mice) under the resting condition. The venous return was maintained by a constant level of hydrostatic pressure (7-8 mm Hg) yielding a steady rate of venous return. The entering KHS buffer was then switched from retrograde to antegrade perfusion and produced a work-performing heart preparation. […] Aortic flow was the amount of perfusate exiting the aortic cannula measured in […]. […]\nThe pressure recordings were channeled from amplifiers which had been precalibrated by a transducer simulator/calibrator (Ken Scientific Corp., Litchfield, Conn.). […] Data were analyzed by computer software (WorkBench for Windows+, Kent Scientific Corp.) designed for an IBM-compatible computer (Dell). […] Data points under each basal condition and during infusion of each drug concentration were summarized as means±SE, and the statistical differences were analyzed by one-way ANOVA with post-test comparison and t test."}},
  "data": [
    {"molecule": "CSc1nc(N)c2ncn([C@@H]3O[C@H](COP(=O)(O)OP(=O)(O)O)[C@@H](O)[C@H]3O)c2n1", "note": "[2-methylthio ADP]", "values": [
      {"measurement": "effect on basal contractile amplitude (positive inotropic effect)", "setting": "[1]; myocytes paced at 2 HZ, FIG. 7", "value": "pronounced positive inotropic effect"}
    ]},
    {"molecule": "Nc1ncnc2c1ncn2[C@@H]1O[C@H](COP(=O)(O)OP(=O)(O)O)[C@@H](O)[C@H]1O", "note": "[ADP]", "values": [
      {"measurement": "maximal % increase in contractile amplitude", "setting": "[1]", "value": "47.7±10", "unit": "%"}
    ]},
    {"molecule": "Nc1ncnc2c1ncn2[C@@H]1O[C@H](COP(=O)(O)OP(=O)(O)NP(=O)(O)O)[C@@H](O)[C@H]1O", "note": "[App(NH)p, adenylyl imidodiphospate]", "values": [
      {"measurement": "effect on contractile amplitude in presence of adenosine receptor antagonist 8-SPT", "setting": "[1]; App(NH)p plus 8-sulfophenyltheophylline, FIG. 8", "value": "not mediated via the adenosine receptor"},
      {"measurement": "effect on basal contractile amplitude (positive inotropic effect)", "setting": "[1]; FIG. 8", "value": "pronounced positive inotropic effect"}
    ]},
    {"molecule": "Nc1ncnc2c1ncn2[C@@H]1O[C@H](COP(=O)(O)CP(=O)(O)OP(=O)(O)O)[C@@H](O)[C@H]1O", "note": "[α,β-methylene ATP]", "values": [
      {"measurement": "ability to stimulate an increase in contractile amplitude", "setting": "[1]", "value": "not capable of producing the same effect"},
      {"measurement": "maximal % increase in contractile amplitude", "setting": "[1]", "value": "−13±5", "unit": "%"}
    ]},
    {"molecule": "Nc1ncnc2c1ncn2[C@@H]1O[C@H](COP(=O)(O)O)[C@@H](O)[C@H]1O", "note": "[AMP]", "values": [
      {"measurement": "maximal % increase in contractile amplitude", "setting": "[1]", "value": "9.6±4", "unit": "%"}
    ]},
    {"molecule": "O=c1ccn([C@@H]2O[C@H](COP(=O)(O)OP(=O)(O)OP(=O)(O)O)[C@@H](O)[C@H]2O)c(=O)[nH]1", "note": "[UTP]", "values": [
      {"measurement": "ability to stimulate an increase in contractile amplitude", "setting": "[1]", "value": "not capable of producing the same effect"},
      {"measurement": "desensitization of the positive inotropic response to ATP, ADPβS and UTP after pre-exposure", "setting": "[1]", "value": "failed to cause such desensitization"},
      {"measurement": "maximal % increase in contractile amplitude", "setting": "[1]", "value": "22±4", "unit": "%"}
    ]},
    {"molecule": "adenylyl 5′phosphoramidate", "values": [
      {"measurement": "effect on basal contractile amplitude (positive inotropic effect)", "setting": "[1]; myocytes paced at 2 HZ, FIG. 7", "value": "pronounced positive inotropic effect"}
    ]},
    {"molecule": "Nc1ncnc2c1ncn2[C@@H]1O[C@H](COP(=O)(O)OP(O)(O)=S)[C@@H](O)[C@H]1O", "note": "[ADPβS]", "values": [
      {"measurement": "maximal % increase in contractile amplitude", "setting": "[1]", "value": "76±15", "unit": "%"}
    ]},
    {"molecule": "Nc1ncnc2c1ncn2[C@@H]1O[C@H](CO)[C@@H](O)[C@H]1O", "note": "[adenosine]", "values": [
      {"measurement": "maximal % increase in contractile amplitude", "setting": "[1]", "value": "15±4", "unit": "%"}
    ]},
    {"molecule": "CSc1nc(N)c2ncn([C@@H]3O[C@H](COP(=O)(O)OP(=O)(O)OP(=O)(O)O)[C@@H](O)[C@H]3O)c2n1", "note": "[2-methylthio ATP]", "values": [
      {"measurement": "heart rate (H.R.)", "setting": "isolated mouse heart", "value": "did not change the heart rate"},
      {"measurement": "increase in +dP/dt (cardiac muscle contractility)", "setting": "isolated mouse heart", "value": "statistically significant"},
      {"measurement": "increase in cardiac output (C.O.)", "setting": "isolated mouse heart", "value": "statistically significant"},
      {"measurement": "increase in −dP/dt (diastolic relaxation)", "setting": "isolated mouse heart", "value": "statistically significant"},
      {"measurement": "ability to stimulate an increase in contractile amplitude", "setting": "[1]", "value": "capable of stimulating an increase in contractile amplitude"},
      {"measurement": "desensitization of the positive inotropic response to ATP, ADPβS and UTP after pre-exposure", "setting": "[1]", "value": "desensitized the positive inotropic response"},
      {"measurement": "maximal % increase in contractile amplitude", "setting": "[1]", "value": "54±7", "unit": "%"},
      {"measurement": "+dP/dt (index of muscle contractility)", "setting": "working rat heart", "value": "increases"},
      {"measurement": "−dP/dt (index of diastolic relaxation)", "setting": "working rat heart", "value": "increases"}
    ]},
    {"molecule": "Nc1ncnc2c1ncn2[C@@H]1O[C@H](COP(=O)(O)OP(=O)(O)OP(=O)(O)O)[C@@H](O)[C@H]1O", "note": "[ATP]", "values": [
      {"measurement": "maximal % increase in contractile amplitude", "setting": "[1]", "value": "89.7±9", "unit": "%"}
    ]},
    {"molecule": "CC(C)NCC(O)c1ccc(O)c(O)c1", "note": "(stereo not shown) [isoproterenol]", "values": [
      {"measurement": "heart rate (H.R.)", "setting": "isolated mouse heart", "value": "significant stimulation"},
      {"measurement": "increase in +dP/dt (cardiac muscle contractility)", "setting": "isolated mouse heart", "value": "statistically significant"},
      {"measurement": "increase in cardiac output (C.O.)", "setting": "isolated mouse heart", "value": "statistically significant"},
      {"measurement": "increase in −dP/dt (diastolic relaxation)", "setting": "isolated mouse heart", "value": "statistically significant"}
    ]},
    {"molecule": "Nc1ncnc2c1ncn2[C@@H]1O[C@H](COP(N)(=O)O)[C@@H](O)[C@H]1O", "note": "[adenosine 5′monophosphoramidate]", "values": [
      {"measurement": "effect on basal contractile amplitude (positive inotropic effect)", "setting": "[1]; myocytes paced at 2 HZ, FIG. 7", "value": "pronounced positive inotropic effect"}
    ]}
  ]
}
